Assay results reported in patent publication US20260193293A1, “PEPTIDES CAPABLE OF INHIBITING PROTEIN-PROTEIN INTERACTIONS AT GABAB1A SUBUNIT AND USES THEREOF” (UNIVERSITY OF COPENHAGEN, priority 2022, published 2026).
Where two headings read alike, the source gives them in different places. Residues, ends and D or L forms follow the SMILES beside them.

Molecular target: Sushi domains (SD1/2) protein
Experiment: Fluorescence polarization (FP) competition assay with AJAP-1probe, calculated Ki
Type: binding
Conditions: read-out: Ki (nM) mean ± SEM
Outline: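 Ki values were derived from IC50s (sigmoidal fits, ≥ triplicate), with probe Kd obtained by saturation titration of SD1/2. Peptides displaced a 25 nM TAMRA-labelled probe; polarization read at 530/580 nm in 1% BSA-containing PBS, pH 7.4, room temperature.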

[1] = Table 3, SPOT hit validation and previously reported peptides
[2] = Table 6, elongation and truncation scan of PIANP binding epitope
[3] = Table 4, truncation and elongation scans of APP epitope

Row | Structure (SMILES) | Ki [2] | Ki [3] | also measured
1 | CC[C@H](C)[C@H](NC(=O)[C@H](Cc1ccccc1)NC(=O)[C@H](CCC(=O)O)NC(=O)[C@@H](NC(=O)[C@H](CCC(=O)O)NC(=O)[C@@H](NC(=O)[C@@H](NC(C)=O)[C@@H](C)O)[C@@H](C)O)[C@@H](C)O)C(=O)N[C@@H](C)C(=O)N[C@@H](Cc1c[nH]c2ccccc12)C(=O)NCC(=O)N1CCC[C@H]1C(=O)N[C@H](C(=O)NCC(=O)N[C@@H](CC(=O)O)C(=O)N[C@@H](CCC(=O)O)C(N)=O)[C@@H](C)O (Ac-TTETEFIAWGPTGDE-NH2) | – | – | Ki [1]: 73 ± 1 nM
2 | CC[C@H](C)[C@H](NC(=O)[C@H](Cc1ccccc1)NC(=O)[C@H](CCC(=O)O)NC(=O)[C@@H](NC(=O)[C@H](CCC(=O)O)NC(=O)[C@@H](NC(=O)[C@@H](NC(C)=O)[C@@H](C)O)[C@@H](C)O)[C@@H](C)O)C(=O)N[C@@H](C)C(=O)N[C@@H](Cc1c[nH]c2ccccc12)C(=O)NCC(=O)N1CCC[C@H]1C(=O)N[C@H](C(=O)NCC(=O)N[C@@H](CC(=O)O)C(=O)N[C@@H](CCC(=O)O)C(=O)N[C@@H](CC(=O)O)C(N)=O)[C@@H](C)O (Ac-TTETEFIAWGPTGDED-NH2) | – | – | Ki (Table 5, elongation and truncation scan of AJAP-1 binding epitope): 32 ± 1.4 nM
3 | CC(=O)N[C@H](C(=O)N[C@@H](Cc1c[nH]c2ccccc12)C(=O)NCC(=O)N1CCC[C@H]1C(=O)N[C@H](C(=O)N[C@H](C(=O)N[C@@H](CO)C(=O)N[C@@H](CCCNC(=N)N)C(=O)N[C@@H](CCC(=O)O)C(=O)N[C@@H](CC(=O)O)C(=O)NCC(N)=O)C(C)C)[C@@H](C)O)C(C)C (Ac-VWGPTVSREDG-NH2) | 1740 ± 62 nM | – | –
4 | CC(=O)N[C@H](C(=O)N[C@@H](Cc1c[nH]c2ccccc12)C(=O)N[C@@H](Cc1c[nH]c2ccccc12)C(=O)NCC(=O)NCC(=O)N[C@@H](C)C(=O)N[C@@H](CC(=O)O)C(=O)N[C@H](C(=O)N[C@@H](CC(=O)O)C(=O)N[C@@H](Cc1ccc(O)cc1)C(=O)N[C@@H](C)C(=O)N[C@@H](CC(=O)O)C(N)=O)[C@@H](C)O)C(C)C (Ac-VWWGGADTDYAD-NH2) | – | 60800 ± 5220 nM | –
5 | CC[C@H](C)[C@H](NC(=O)[C@H](C)NC(=O)[C@H](Cc1c[nH]c2ccccc12)NC(C)=O)C(=O)N[C@H](C(=O)N[C@@H](Cc1c[nH]c2ccccc12)C(=O)NCC(=O)N1CCC[C@H]1C(=O)N[C@H](C(=O)N[C@H](C(=O)N[C@@H](CO)C(=O)N[C@@H](CCCNC(=N)N)C(=O)N[C@@H](CCC(=O)O)C(=O)N[C@@H](CC(=O)O)C(=O)NCC(N)=O)C(C)C)[C@@H](C)O)C(C)C (Ac-WAIVWGPTVSREDG-NH2) | > 62500 nM | – | –
6 | CC[C@H](C)[C@H](NC(=O)[C@H](C)NC(=O)[C@H](Cc1c[nH]c2ccccc12)NC(C)=O)C(=O)N[C@H](C(=O)N[C@@H](Cc1c[nH]c2ccccc12)C(=O)NCC(=O)N1CCC[C@H]1C(=O)N[C@H](C(=O)N[C@H](C(=O)N[C@@H](CO)C(=O)N[C@@H](CCCNC(=N)N)C(=O)N[C@@H](CCC(=O)O)C(=O)N[C@@H](CC(=O)O)C(=O)NCC(=O)NCC(N)=O)C(C)C)[C@@H](C)O)C(C)C (Ac-WAIVWGPTVSREDGG-NH2) | – | – | Ki [1]: 1350 ± 49 nM
7 | CC(=O)N[C@@H](Cc1c[nH]c2ccccc12)C(=O)NCC(=O)NCC(=O)N[C@@H](C)C(=O)N[C@@H](CC(=O)O)C(=O)N[C@H](C(=O)N[C@@H](CC(=O)O)C(=O)N[C@@H](Cc1ccc(O)cc1)C(=O)N[C@@H](C)C(=O)N[C@@H](CC(=O)O)C(N)=O)[C@@H](C)O (Ac-WGGADTDYAD-NH2) | – | > 62500 nM | –
8 | CC(=O)N[C@@H](Cc1c[nH]c2ccccc12)C(=O)N[C@@H](Cc1c[nH]c2ccccc12)C(=O)NCC(=O)NCC(=O)N[C@@H](C)C(=O)N[C@@H](CC(=O)O)C(=O)N[C@H](C(=O)N[C@@H](CC(=O)O)C(=O)N[C@@H](Cc1ccc(O)cc1)C(=O)N[C@@H](C)C(=O)N[C@@H](CC(=O)O)C(N)=O)[C@@H](C)O (Ac-WWGGADTDYAD-NH2) | – | > 62500 nM | –
9 | CC[C@H](C)[C@H](NC(=O)[C@H](C)NC(=O)[C@H](Cc1c[nH]c2ccccc12)NC(=O)[C@@H]1CCCN1C(=O)[C@H](Cc1ccc(O)cc1)NC(C)=O)C(=O)N[C@H](C(=O)N[C@@H](Cc1c[nH]c2ccccc12)C(=O)NCC(=O)N1CCC[C@H]1C(=O)N[C@H](C(=O)N[C@H](C(=O)N[C@@H](CO)C(=O)N[C@@H](CCCNC(=N)N)C(=O)N[C@@H](CCC(=O)O)C(=O)N[C@@H](CC(=O)O)C(=O)NCC(N)=O)C(C)C)[C@@H](C)O)C(C)C (Ac-YPWAIVWGPTVSREDG-NH2) | 433 ± 2 nM | – | –
